{"source": "patent US9527827B2", "about": "“C-9 oxygen functionalized labdane derivates” (COUNCIL OF SCIENTIFIC & INDUSTRIAL RESEARCH, priority 2011, dated 2016)", "key": {"[1]": {"tested_on": "Mycobacterium smegmatis", "test": "Specificity test against M. smegmatis (XTT reduction microplate assay)", "assay_type": "cell-based"}, "[2]": {"tested_on": "Escherichia coli", "test": "Specificity test against E. coli (growth, absorbance at 620 nm)", "assay_type": "cell-based"}, "[3]": {"tested_on": "Mycobacterium tuberculosis H37Ra", "test": "In vitro anti-mycobacterial activity against M. tuberculosis", "assay_type": "cell-based", "conditions": "for IC50 / IC90: Mycobacterium tuberculosis, M. tuberculosis H37Ra; for IC50 / IC90 / Inhibition of / anti-tubercular activity against Mycobacterium tuberculosis (in words): in vitro", "procedure": "All the isolated compounds and whole acetone extract were tested for their in vitro effect against Mycobacterium tuberculosis H37Ra."}, "[4]": {"tested_on": "M. tuberculosis H37Rv", "conditions": "cited from earlier work"}, "[5]": {"tested_on": "prostaglandin-induced contractions", "conditions": "cited from earlier work"}}, "note": "“Also recorded” adds a separate entry of the source.", "data": [{"compound": "C[C@@H]1CC[C@H]2C(C)(C)CCC[C@]2(C)[C@@]1(O)CC/C(=C/CO)CO", "note": "[Compound 3]", "values": [{"measurement": "Percent inhibition, M. smegmatis", "setting": "[1]; tested at IC90 found against M. tuberculosis, mean ± S.D. of three experiments", "value": "30.57 ± 3.58", "unit": "%"}, {"measurement": "Percent inhibition, E. coli", "setting": "[2]; tested at IC90 found against M. tuberculosis, 6 h incubation, mean ± S.D. of three experiments", "value": "11.47 ± 1.65", "unit": "%"}, {"measurement": "IC50", "setting": "[3]", "value": 9.8, "unit": "µg/mL"}, {"measurement": "IC90", "setting": "[3]", "value": 46.5, "unit": "µg/mL"}, {"measurement": "Inhibition of / anti-tubercular activity against Mycobacterium tuberculosis (in words)", "setting": "[3]", "value": "significant inhibition; also recorded: effective"}, {"measurement": "Specificity / selectivity for M. tuberculosis (in words)", "setting": "[3]; versus E. coli and M. smegmatis", "value": "specifically active; also recorded: selective inhibitors"}]}, {"compound": "C=C[C@](C)(O)CC[C@@H]1[C@@]2(C)CCCC(C)(C)[C@H]2CC[C@@]1(C)O", "note": "[Compound 4]", "values": [{"measurement": "IC50", "setting": "[3]", "value": 5.95, "unit": "µg/mL"}, {"measurement": "IC90", "setting": "[3]", "value": 10.8, "unit": "µg/mL"}, {"measurement": "Inhibition of / anti-tubercular activity against Mycobacterium tuberculosis (in words)", "setting": "[3]", "value": "potent anti-tubercular activity; also recorded: significant inhibition; also recorded: effective"}]}, {"compound": "NNC(=O)c1ccncc1", "note": "[Isoniazid, reference compound]", "values": [{"measurement": "IC90", "setting": "[3]", "value": "0.05 ± 0.003", "unit": "µg/mL"}]}, {"compound": "CO[C@H]1/C=C/O[C@@]2(C)Oc3c(C)c(O)c4c(O)c(c(/C=N/N5CCN(C)CC5)c(O)c4c3C2=O)NC(=O)/C(C)=C\\C=C\\[C@H](C)[C@H](O)[C@@H](C)[C@@H](O)[C@@H](C)[C@H](OC(C)=O)[C@@H]1C", "note": "[Rifampicin, reference compound]", "values": [{"measurement": "IC90", "setting": "[1]; Mycolicibacterium smegmatis, reference drug, value is IC90, not percent inhibition", "value": "0.2 ± 0.03", "unit": "µg/mL"}, {"measurement": "IC90", "setting": "[2]; Escherichia coli, reference drug, value is IC90, not percent inhibition", "value": "0.5 ± 0.04", "unit": "µg/mL"}]}, {"compound": "C=CC(=C)CCC1C(=C)CC[C@H]2[C@@](C)(C(=O)O)[C@H](OC(C)=O)CC[C@]12C", "note": "(some centres unmarked) [juniperexcelsic acid]", "values": [{"measurement": "MIC", "setting": "[4]", "value": 14.4, "unit": "µg/mL"}]}, {"compound": "C=C[C@]1(C)C=C2C(=O)C[C@H]3C(C)(C)[C@@H](O[C@@H]4O[C@H](CO)[C@@H](O)[C@H](O)[C@H]4O[C@@H]4O[C@H](CO[C@@H]5O[C@H](CO)[C@@H](O)[C@H](O)[C@H]5O)[C@@H](O)[C@H](O)[C@H]4O)CC[C@]3(C)[C@H]2CC1", "note": "[leucasperosides A, leucasperoside A]", "values": [{"measurement": "Inhibition of prostaglandin-induced contractions (in words)", "setting": "[5]", "value": "showed inhibition"}]}, {"compound": "C=C[C@]1(C)C=C2C(=O)C[C@H]3C(C)(C)[C@@H](O[C@@H]4O[C@H](CO)[C@@H](O)[C@H](O)[C@H]4O[C@@H]4O[C@H](CO)[C@@H](O)[C@H](O)[C@H]4O)CC[C@]3(C)[C@H]2CC1", "note": "[leucasperosides B, leucasperoside B]", "values": [{"measurement": "Inhibition of prostaglandin-induced contractions (in words)", "setting": "[5]", "value": "showed inhibition"}]}, {"compound": "leucasperone A", "values": [{"measurement": "Inhibition of prostaglandin-induced contractions (in words)", "setting": "[5]", "value": "showed inhibition"}]}, {"compound": "linifolioside", "values": [{"measurement": "Inhibition of prostaglandin-induced contractions (in words)", "setting": "[5]", "value": "showed inhibition"}]}]}
